Read-outs that look alike come from different tables or passages of the source.
Test system: recombinant rabies virus 1088 strain expressing Gaussia Luciferase (1088/GLuc)
Test: microbe, parasite or virus in culture
Type: cell-based

Cc1ccc2c(CN3CC4CC5(C(=O)NCC6CCCCCC6)NC(=O)C4C3C5CC(C)C)cn(C(=O)OC(C)(C)C)c2c1 (racemic) [IF-782]
IC50 (read-out: Anti-rabies activity): 10 to 30 µM

Cc1ccc2c(C[C@@H]3[C@H]4C[C@H]5CN[C@@H]3[C@@]5(C(=O)NCC3CCCCCC3)N(CC(C)C)C4=O)cn(C(=O)OC(C)(C)C)c2c1 [IB-814]
IC50 (read-out: Anti-rabies activity): 10 to 30 µM

NC(=O)c1nc(F)c[nH]c1=O [Compound T-705, reference compound]
IC50 (Lyssavirus rabies, N2a, 72 h, read-out: anti-rabies virus activity IC50): 30 µM

CC(C)CN1C(=O)[C@@H]2C[C@H]3CN[C@@H]([C@@H]2Cc2c[nH]c4cc(F)ccc24)[C@]31C(=O)NCC1CCCCCC1 [IB-817]
IC50 (read-out: Anti-rabies activity): 10 to 30 µM

COc1ccc(CN2C[C@H]3C[C@]4(C(=O)NCc5ccccc5)NC(=O)[C@H]3[C@H]2[C@H]4CC(C)C)cc1 (relative stereo) [Compound I-5, (3S*,3aR*,6S*,7R*,7aR*)-N-benzyl-7-isobutyl-1-(4-methoxybenzyl)-4-oxooctahydro-6H-3,6-methanopyrrolo[3,2-c]pyridine-6-carboxamide]
IC50 (Lyssavirus rabies, N2a, 72 h, read-out: Anti-rabies activity): < 5 µM

From US12310955B2 (priority 2020, dated 2025)
